Laboratory results taken from publication PMC6790694, “Selective Modification of Ribosomally Synthesized and Post‐Translationally Modified Peptides (RiPPs) through Diels–Alder Cycloadditions on Dehydroalanine Residues” (Chemistry (Weinheim an Der Bergstrasse, Germany), 2019).
In brackets after ≈: the same amount, converted by molar mass.

How the values were obtained:
E. faecalis (ATCC29212) = assay: MIC assay, broth microdilution, E. faecalis; type: cell-based, Enterococcus faecalis; conditions: supplement table SI-21; E. faecalis LMG 08222 (ATCC29212); broth microdilution in CAMHB + 3 % v/v lysed horse blood, 37 °C, 20 h; tested three times in triplicates
Method: (§1) Moreover, variations in activity towards both strains and between the different site‐ and endo/exo isomers remained limited to a factor of 4. The activity of 3 also very closely resembles that of thiostrepton, showing that even removing part of the tail region has little effect on its activity.
(§2) Biological Activity Assays
(§3) Preparation of antimicrobial agents
(§4) Thiostrepton and its variants were dissolved and diluted in DMSO to a concentration of 640 µg/ml, and stored at -20 °C. Before use, they were diluted 20 fold in Mueller Hinton Broth 2 (CAMHB; cation-adjusted, Sigma-Aldrich).
(§5) Dilution of the thiostrepton compounds in CAMHB was done in 50 % volume steps to prevent precipitation.
(§6) Vancomycin for the quality controls was dissolved in MQ to a concentration of 256 mg/ml and stored at -20 °C.
(§7) It was diluted in CAMHB to a final concentration of 256 µg/ml before use.
(§8) Strains and growth conditions
(§9) The MIC values of thiostrepton and its variants were determined for Staphylococcus aureus LMG 10147 […]
(§10) from glycerol stocks on LB (Formedium™) and GM17 (Difco™) plates respectively. […]
(§11) Well 11, lacking the test compound, functions as a growth control and well 12 as a sterility control. […] To ensure MIC data reliability, MIC values for vancomycin were determined for every series of tests performed, as described […]

S. aureus (ATCC29213) = assay: MIC assay, broth microdilution, S. aureus; type: cell-based, Staphylococcus aureus; conditions: supplement table SI-21; S. aureus LMG 10147 (ATCC29213); broth microdilution in CAMHB, 37 °C, 20 h; tested three times in triplicates
Method: as §1, §2, §3, §4, §5, §6, §7, §8, §9, §10, §11

SMILES: C=C(NC(=O)C(=C)NC(=O)c1csc(C2=N[C@@H]3c4csc(n4)[C@H]4NC(=O)c5csc(n5)[C@H]([C@](C)(O)[C@@H](C)O)NC(=O)[C@H]5CSC(=N5)/C(=C/C)NC(=O)[C@H]([C@@H](C)O)NC(=O)c5csc(n5)[C@]3(CC2)NC(=O)[C@H](C)NC(=O)C(=C)NC(=O)[C@H](C)NC(=O)[C@H]([C@@H](C)CC)N[C@@H]2C=Cc3c([C@H](C)O)cc(nc3[C@H]2O)C(=O)O[C@@H]4C)n1)C(N)=O [Thiostrepton, thiostrepton]
- MIC against E. faecalis (VSE) (E. faecalis (ATCC29212)): 0.5 µg/mL
- MIC against S. aureus (MSSA) (S. aureus (ATCC29213)): 0.5 µg/mL (≈ 0.3 µM)
